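Following 48 hours of exposure in 96-well plates, responses at five concentrations were used to interpolate endpoints linearly. The concentration for 50% growth inhibition is given as GI50.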 The source made the active and inactive calls. Cut-off read from the data, not from the text of the source: active = GI50 up to about 1.1 µM and inactive = higher.
Legend:
Assay in all cases: NCI anticancer screen, dose series, 48 h
A498 = system: A498
HOP-92 = system: HOP-92
RXF 393 = system: RXF 393
MDA-MB-231 = system: MDA-MB-231
OVCAR-4 = system: OVCAR-4
IGROV-1 = system: IGROV-1
NCI/ADR-RES = system: NCI/ADR-RES
OVCAR-3 = system: OVCAR-3
SN12C = system: SN12C
COLO 205 = system: COLO 205
A549 = system: A549
SK-OV-3 = system: SK-OV-3
NCI-H23 = system: NCI-H23
HCT-116 = system: HCT-116
HT-29 = system: HT-29
CAKI-1 = system: CAKI-1
SF-268 = system: SF-268
HL-60 = system: HL-60
NCI-H522 = system: NCI-H522
KM12 = system: KM12
HCT-15 = system: HCT-15
K562 = system: K562
LOX IMVI = system: LOX IMVI
Hs-578T = system: Hs-578T
HOP-62 = system: HOP-62
M14 = system: M14
EKVX = system: EKVX
PC-3 = system: PC-3
T47D = system: T47D
UACC-62 = system: UACC-62
SF-539 = system: SF-539
SK-MEL-5 = system: SK-MEL-5
SNB-19 = system: SNB-19
786-0 = system: 786-0
CCRF-CEM = system: CCRF-CEM
SK-MEL-28 = system: SK-MEL-28
OVCAR-8 = system: OVCAR-8
HCC 2998 = system: HCC 2998
BT-549 = system: BT-549
SR = system: SR
Malme-3M = system: Malme-3M
U-251 = system: U-251
ACHN = system: ACHN
DU-145 = system: DU-145
MDA-MB-435 = system: MDA-MB-435
UACC-257 = system: UACC-257
UO-31 = system: UO-31
RPMI-8226 = system: RPMI-8226
TK-10 = system: TK-10
SF-295 = system: SF-295
NCI-H226 = system: NCI-H226
OVCAR-5 = system: OVCAR-5
SW-620 = system: SW-620

In the case of Cc1nc(=O)n2c(c1C(=O)Nc1ccc(Cl)cc1)NCC2, the GI50 (A498) is reported as > 72.8 µM (inactive) and the GI50 (HOP-92) is reported as > 79.4 µM (inactive).

For Cn1c2ccccc2c2ccc3c(c21)C(=O)c1ccccc1C3=O, the GI50 (RXF 393) was 15.8 µM (inactive), the GI50 (MDA-MB-231) was 19.5 µM (inactive) and the GI50 (OVCAR-4) was 17.5 µM (inactive). For the same molecule, the GI50 (IGROV-1) was 13.8 µM (inactive), the GI50 (NCI/ADR-RES) was 13.7 µM (inactive) and the GI50 (OVCAR-3) was 12.9 µM (inactive). For the same molecule, the GI50 (SN12C) was 20.6 µM (inactive), the GI50 (COLO 205) was 26.6 µM (inactive) and the GI50 (A549) was 24.7 µM (inactive). The GI50 (SK-OV-3) was 15.8 µM (inactive), the GI50 (NCI-H23) was 15.7 µM (inactive) and the GI50 (HCT-116) was 17.3 µM (inactive). The GI50 (HT-29) was 16.9 µM (inactive), the GI50 (CAKI-1) was 22.2 µM (inactive) and the GI50 (SF-268) was 18.7 µM (inactive). For the same molecule, the GI50 (HL-60) was 2.75 µM (inactive), the GI50 (NCI-H522) was 15.1 µM (inactive) and the GI50 (KM12) was 27.8 µM (inactive). For the same molecule, the GI50 (HCT-15) was 15.1 µM, the GI50 (K562) was 11.8 µM (inactive) and the GI50 (LOX IMVI) was 15.9 µM (inactive). For the same molecule, the GI50 (Hs-578T) was 14.1 µM (inactive), the GI50 (HOP-62) was 18 µM (inactive) and the GI50 (M14) was 27.2 µM (inactive). For the same molecule, the GI50 (EKVX) was 12.5 µM (inactive), the GI50 (PC-3) was 13 µM (inactive) and the GI50 (T47D) was 11.7 µM (inactive). The GI50 (UACC-62) was 16.7 µM (inactive), the GI50 (SF-539) was 17.3 µM (inactive) and the GI50 (SK-MEL-5) was 13.2 µM (inactive). For the same molecule, the GI50 (SNB-19) was 37.8 µM (inactive), the GI50 (A498) was > 10 µM (inactive) and the GI50 (786-0) was 17.6 µM (inactive). The GI50 (CCRF-CEM) was 3.02 µM (inactive), the GI50 (SK-MEL-28) was 14.6 µM (inactive) and the GI50 (OVCAR-8) was 17.3 µM (inactive). The GI50 (HCC 2998) was 41.9 µM (inactive), the GI50 (HOP-92) was 18.9 µM (inactive) and the GI50 (BT-549) was 21.1 µM (inactive). For the same molecule, the GI50 (SR) was 3.29 µM (inactive), the GI50 (Malme-3M) was 5.86 µM (inactive) and the GI50 (U-251) was 16.4 µM (inactive). The GI50 (ACHN) was 12.4 µM (inactive), the GI50 (DU-145) was 84.5 µM (inactive) and the GI50 (MDA-MB-435) was 16 µM (inactive). For the same molecule, the GI50 (UACC-257) was 19.5 µM (inactive), the GI50 (UO-31) was 25.5 µM (inactive) and the GI50 (RPMI-8226) was 12.2 µM (inactive). The GI50 (TK-10) was 14.4 µM (inactive), the GI50 (SF-295) was 18.2 µM (inactive) and the GI50 (NCI-H226) was 30.1 µM (inactive). For the same molecule, the GI50 (OVCAR-5) was > 100 µM (inactive) and the GI50 (SW-620) was 28.2 µM (inactive).

From ChEMBL document CHEMBL1201862, “PubChem BioAssay data set” (2004)
